Like-named read-outs stand apart in the source and are kept apart here.
What was measured:
Mice L-M cells = assay: Inducing activities of TNF in vitro (cytotoxicity of serum from treated mice); assay type: cell-based, mice (ICR male mice serum; mice L-M cells); conditions: Mus musculus, iv; 10 μg via tail vein, serum 90 mins after; L-M cells 48 hrs; read-out: Cytotoxicities
Method: (2) Inducing activities of TNF in vitro
Inducing activity of TNF in vitro was measured by the following test system.
Corye parvum (manufactured by Ribi Immuno Chem. Research Inc.) was administered in ICR male mice 6-weeks old through the tail vein as priming agent. Ten days later, the compounds of the present invention (10 μg) were administered through tail vein as eliciting agent. 90 mins after the administration, blood was collected from the hearts, and blood serums were separated.
Mice L-M cells (10^4 /100 μl/well) suspended in a mixture of the diluted serum solution (100 μl/well) and RPMI 1640 cultivating solution (10% FEBS and 0.2% glucose; manufactured by Nissui Pharmaceutical Co.) were cultivated in an atmosphere of a mixed gas of 5% CO2 -[…], for 48 hrs at 37° C., after adding ^3 H-tymidine taken (0.5 μCi/20 μl/well). Amounts of ^3 H-tymidine taken into cells during the cultivation were measured.
Inducing activities of TNF were measured by cytotoxicity calculated as follows: [formula]

lympha cells = assay: Mitogenic activity in vitro (Blastogenic index); assay type: cell-based, C3H/He male mice; conditions: Mus musculus, Lymphocyte
Method: (1) Mitogenic activity in vitro
Mitogenic activity means activity of activating mitogenic cell division, and in this test system, the amount of tymidine taken into lympha cells was measured and a ratio determined against a blank control call (Blastogenic index) was calculated.
For example, adding the compound prepared in example 1(c) to the test system induced 30 times the amount of tymidine taken into the lympha cells versus the control.
The amounts were measured by density of a radiolabel.
Mytogenic activity in vitro was measured by the following method (See Procedure Method of Immunoexperiment pp 315 published by Japan Immunology Society).
C3H/He male mice 6 weeks old were killed by bloodletting, and their spleens were isolated and homogenized. Homogenizing liquids were filtered with gauze, and suspending cells were prepared with PBS solution. After washing, lymphacytes fractions were gathered with lympholight M. Lymphacytes were suspended in RPMI 1640 cultivation solution (10% FEBS), and the solution was divided into 5×10^5 cells/180 μl/wells. Ten times concentration of the terminal concentration (1 μg/ml) of the compounds of the present invention were added with 20 μl portions to each of the wells.
After cultivation, ^3 H-tymidine 0.5 μCi/20 μl was added to the each cells. Cultivation was continued at 37° C. for another 24 hrs, and amounts of ^3 H-tymidine taken into the cells were measured. Mitogenic activities were calculated as by Blastogenic index in as follows. [formula]

Meth-A sarcoma = assay: Anti-tumor effect on Balb/C mice inoculated with Meth-A Sarcoma; assay type: in vivo, female Balb/C mice; conditions: for Apperarent tumor weight: g ± standard error; for Survival period: iv tail vein Day 7, 9, 12, day ± standard error
Method: (1) Anti-tumor effect on Balb/C mice inocudlated with Meth-A Sarcoma
Anti-tumor effect was measured by the following procedure.
Tumor cells which had been maintained in ascites of Balb/C mouse generation after generation was used. One group is consisting of eight female Balb/C mice. Meth-A sarcoma tumor (1×10^5 cells/0.05 ml) was inoculated into left side of female mice of 7-week old (body weight: 18-20 g). Seven day after, when tumor size came to 6~9 mm, test compound was administered into tail vein first (day 7) and then administered two times (total three times: Day 7, 9, 12). Dose of test compound is 3 and 10 mg/kg or 3, 10 and 30 mg/kg and each test compound solution volume was 10 ml/kg. Anti-tumor effect is estimated by survival period (from inoculation day to death day) and tumor apparent weight. [formula] Test results about survival period and tumor appearent weight are shown in the following Tables II(1) and II(2), respectively.
In experiments, statistic analysis was done with unpaired Student's t(two tailed)-test. […] P values lower than 0.05 were judged to be significant.

[1] = Acute toxicity (LD50), intravenous in mice; conditions: mouse, in vivo
Method: For example, the values of LD50 of the compound prepared in example 1(c) was more than 300 mg/kg animal body weight by intravenous administration in mice.

[2] = terminal concentration 1 μg/ml, ratio of 3H-tymidine uptake vs blank control, read-out: Blastgenic Index

Work on `CCCCCCCCCCCCCC(=O)OC(CCCCCCCCCCC)CC(=O)N[C@H]1COC[C@@H](OS(=O)(=O)O)[C@@H]1OC(=O)CCCCCCCCCCCCC` (single isomer, unassigned) [3(b), 2-deoxy-2-[3-tetradecanoyloxytetradecanoyl]amino-3-O-tetradecanoyl-4-O-sulfo-1,5-anhydro-D-xylitol] yielded a cytotoxicity at 0.01 mg (Mice L-M cells) of 30.2% and a fold induction at 1 µg/mL (lympha cells; [2]) of 13.7.

In the case of `CCCCCCCCCCC[C@@H](CC(=O)N[C@H]1C(O)O[C@H](CO)[C@@H](OS(=O)(=O)O)[C@@H]1OC(=O)CCCCCCCCc1ccccc1)OC(=O)CCCCCCCCc1ccccc1` (stereo partly drawn) [1(c), 2-deoxy-2-[3S-(9-phenylnonanoyloxy)tetradecanoyl]amino-3-O-(9-phenylnonanoyl)-4-O-sulfo-D-glucopyranose], the cytotoxicity at 0.01 mg (Mice L-M cells) is reported as 86%, the fold induction at 1 µg/mL (lympha cells; compound added to the test system, 1 μg/ml, read-out: amount of tymidine taken into the lympha cells versus the control) is reported as 30 and the fold induction at 1 µg/mL (lympha cells; [2]) is reported as 30. It also gave an Apperarent tumor weight (Meth-A sarcoma; 3 mg/kg iv, Day 7) of 0.200 ± 0.074 g, an Apperarent tumor weight (Meth-A sarcoma; 3 mg/kg iv, Day 10) of 0.240 ± 0.118 g and an Apperarent tumor weight (Meth-A sarcoma; 3 mg/kg iv, Day 13) of 0.314 ± 0.206 g. The Apperarent tumor weight (Meth-A sarcoma; 3 mg/kg iv, Day 16) was 0.580 ± 0.412 g, the Apperarent tumor weight (Meth-A sarcoma; 10 mg/kg iv, Day 7) was 0.199 ± 0.044 g and the Apperarent tumor weight (Meth-A sarcoma; 10 mg/kg iv, Day 10) was 0.156 ± 0.084 g. For the same compound, the Apperarent tumor weight (Meth-A sarcoma; 10 mg/kg iv, Day 13) was 0.120 ± 0.099 g, the Apperarent tumor weight (Meth-A sarcoma; 10 mg/kg iv, Day 16) was 0.208 ± 0.253 g and the “effect on prolongation of life” value (Meth-A sarcoma; at the dose of 10 mg/kg) was “significant effect”. The “effect on tumore regression” value (Meth-A sarcoma; at the dose of 10 mg/kg) was “significant effect”, the Survival period (Meth-A sarcoma; dose 3 (mg/kg)) was 46.8 ± 6.3 days and the Survival period (Meth-A sarcoma; dose 10 (mg/kg)) was 62.8 ± 18.8 days. For the same compound, the LD50 [1] was > 300 mg/kg.

For `CCCCCCCCCCC[C@@H](CC(=O)N[C@H]1C(O)O[C@H](CO)[C@@H](OS(=O)(=O)O)[C@@H]1OC(=O)CCCCCCCCCc1ccccc1)OC(=O)CCCCCCCCCc1ccccc1` (stereo partly drawn) [1(d), 2-deoxy-2-[3S-(10-phenyldecanoyloxy)tetradecanoyl]amino-3-O-(10-phenyldecanoyl)-4-O-sulfo-D-glucopyranose], the cytotoxicity at 0.01 mg (Mice L-M cells) was 95% and the fold induction at 1 µg/mL (lympha cells; [2]) was 28.

`CCCCCCCCCCC[C@H](CC(=O)N[C@H]1C(O)O[C@H](CO)[C@@H](OS(=O)(=O)O)[C@@H]1OC(=O)CCCCCCCCc1ccccc1)OC(=O)CCCCCCCCc1ccccc1` (stereo partly drawn) [1(h), 2-deoxy-2-[3R-(9-phenylnonanoyloxy)tetradecanoyl]amino-3-O-(9-phenylnonanoyl)-4-O-sulfo-D-glucopyranose] gave a cytotoxicity at 0.01 mg (Mice L-M cells) of 81% and a fold induction at 1 µg/mL (lympha cells; [2]) of 37.

For `CCCCCCCCCCC[C@@H](CC(=O)N[C@H]1C(O)O[C@H](CO)[C@@H](OS(=O)(=O)O)[C@@H]1OC(=O)CCCCCCCCc1ccc(Cl)cc1)OC(=O)CCCCCCCCc1ccc(Cl)cc1` (stereo partly drawn) [1(j), 2-deoxy-2-[3S-[9-(4-chlorophenyl)nonanoyloxy]tetradecanoyl]amino-3-O-[9-(4-chlorophenyl)nonanoyl]-4-O-sulfo-D-glucopyranose], the cytotoxicity at 0.01 mg (Mice L-M cells) was 69% and the fold induction at 1 µg/mL (lympha cells; [2]) was 25.

In the case of `O=C(C[C@H](CCCCCCc1ccccc1)OC(=O)CCCCCCCCc1ccccc1)N[C@H]1C(O)O[C@H](CO)[C@@H](OS(=O)(=O)O)[C@@H]1OC(=O)CCCCCCCCc1ccccc1` (stereo partly drawn) [1(r), 2-deoxy-2-[3S-(9-phenylnonanoyloxy)-9-phenylnonanoyl]amino-3-O-(9-phenylnonanoyl)-4-O-sulfo-D-glucopyranose], the cytotoxicity at 0.01 mg (Mice L-M cells) is reported as 86% and the fold induction at 1 µg/mL (lympha cells; [2]) is reported as 17.

For `CCCCCCCCCCC[C@H](CC(=O)N[C@H]1CO[C@H](CO)[C@@H](OS(=O)(=O)O)[C@@H]1OC(=O)CCCCCCCCc1ccccc1)OC(=O)CCCCCCCCc1ccccc1` [1(s), 2-deoxy-2-[3R-(9-phenylnonanoyloxy)tetradecanoyl]amino-3-O-(9-phenylnonanoyl)-4-O-sulfo-1,5-anhydro-D-glucitol], the cytotoxicity at 0.01 mg (Mice L-M cells) was 100% and the fold induction at 1 µg/mL (lympha cells; [2]) was 58.

Work on `CCCCCCCCCCCCCC(=O)O[C@H]1[C@H](OS(=O)(=O)O)[C@@H](CO)OC(O)[C@@H]1NC(=O)c1ccc(OCCCCCCCCCC)c(OCCCCCCCCCC)c1` (stereo partly drawn) [Example 4, 2-deoxy-2-(3,4-didecyloxybenzoyl)amino-3-O-tetradecanoyl-4-O-sulfo-D-glycopyranose] yielded a cytotoxicity at 0.01 mg (Mice L-M cells) of 20%, a fold induction at 1 µg/mL (lympha cells; [2]) of 27.7 and an Apperarent tumor weight (Meth-A sarcoma; 3 mg/kg iv, Day 7) of 0.212 ± 0.042 g. For the same compound, the Apperarent tumor weight (Meth-A sarcoma; 3 mg/kg iv, Day 10) was 0.469 ± 0.169 g, the Apperarent tumor weight (Meth-A sarcoma; 3 mg/kg iv, Day 13) was 0.650 ± 0.162 g and the Apperarent tumor weight (Meth-A sarcoma; 3 mg/kg iv, Day 16) was 1.004 ± 0.434 g. For the same compound, the Apperarent tumor weight (Meth-A sarcoma; 10 mg/kg iv, Day 7) was 0.205 ± 0.022 g, the Apperarent tumor weight (Meth-A sarcoma; 10 mg/kg iv, Day 10) was 0.361 ± 0.056 g and the Apperarent tumor weight (Meth-A sarcoma; 10 mg/kg iv, Day 13) was 0.455 ± 0.116 g. For the same compound, the Apperarent tumor weight (Meth-A sarcoma; 10 mg/kg iv, Day 16) was 0.846 ± 0.233 g, the “effect on prolongation of life” value (Meth-A sarcoma; at the dose of 3 mg/kg) was “significant effect” and the “effect on tumore regression” value (Meth-A sarcoma; at the dose of 3 mg/kg) was “significant effect”. For the same compound, the Survival period (Meth-A sarcoma; dose 3 (mg/kg)) was 48.5 ± 8.7 days and the Survival period (Meth-A sarcoma; dose 10 (mg/kg)) was 46.6 ± 7.2 days.

From USRE36385E, “Glucopyranose derivatives” (Ono Pharmaceutical Co., Ltd., priority 1985, dated 1999)
